Assay results from patent US6485924B2, “Method for identifying inhibitors of cytokinesis” (Boehringer Ingelheim International GmbH, priority 1999, dated 2002).

Assays:
[1] = target: T1, XSepA (Xenopus laevis, UniProt Q9DE33); assay: GTP filter binding assay; conditions: for ability of cold nucleotide to compete with the radiolabeled guanine nucleotide: data not shown
T1 construct: made in house; host or cells: E. coli BL21(DE3)
T1 sequence (Q9DE33 1-356): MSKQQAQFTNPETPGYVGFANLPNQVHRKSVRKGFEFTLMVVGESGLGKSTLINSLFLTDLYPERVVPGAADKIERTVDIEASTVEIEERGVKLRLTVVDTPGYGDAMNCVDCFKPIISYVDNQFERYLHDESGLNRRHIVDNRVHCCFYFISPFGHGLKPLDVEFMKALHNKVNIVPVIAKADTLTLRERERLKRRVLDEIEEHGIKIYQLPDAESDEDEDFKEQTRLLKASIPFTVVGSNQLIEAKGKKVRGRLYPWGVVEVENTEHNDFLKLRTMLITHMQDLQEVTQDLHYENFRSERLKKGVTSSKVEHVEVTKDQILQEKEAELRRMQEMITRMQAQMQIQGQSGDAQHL
Protocol: For GTP binding, 1 μM of XSepA (or Δcc-SepA) in S-buffer was incubated with 0.1 mg/ml BSA, 5 mM MgCl2 and 4.4 μM ^3H-GTP (4.60 Ci/mmol, 1 mCi/ml; Amersham). At time intervals, aliquots of the reaction were diluted in cold wash buffer (20 mM Tris pH 8.0, 50 mM NaCl, 5 mM MgCl2) and filtered through pre-wetted nitrocellulose circles (Schleicher and Schuell) Filters were washed with 10 ml of wash buffer, dried, and the retained radioactivity quantified in a scintillation counter.
The ability of recombinant XSepA to bind guanine nucleotide was tested by using a filter binding assay. […] To assay for GTP hydrolysis, XSepA was incubated with limiting amounts of [α-^32P]GTP and the production of radioactive GDP was followed by thin layer chromatography. […] FIGS. 1C and 1D show time courses of GTP binding and hydrolysis by XSepA and Δcc-SepA. Recombinant protein (1 μM) was incubated with an excess of [^3H]GTP to quantify nucleotide binding, or with sub-stoichiometric amounts of [α-^32P]GTP to detect nucleotide hydrolysis. (C) GTP binding as determined by a filter-binding assay. (D) TLC plate showing generation of radioactive GDP from GTP. Aliquots of the reaction were quenched in a denaturing solution at the indicated time, and the nucleotide content was resolved by TLC. BSA (0.1 mg/ml) was used as a negative control in both experiments.)

[2] = target: T1, XSepA; assay: Filament assembly / polymerization followed by immunofluorescence microscopy; assay type: biochemical; conditions: for filamentous structures observed: control nucleotide used instead of GTP, 30 minutes; for length of the lag phase of polymerization: 1 mg/ml XSepA, 0.1 mM nucleotide; for critical concentration for XSepA polymerization: 30 min incubation with nucleotide
Protocol: (§1) Polymerization reactions were carried out in S-buffer in the presence of 5 mM MgCl2 and GTP, GTP-γ-S, GDP or ATP (Gibco). Before nucleotide addition, all samples were pre-cleared in an ultracentrifuge (see below). Aliquots of the reaction were diluted to a final septin concentration of 3.3 μg/ml, and 100 μl drops spotted on glass coverslips for 1 min. Before use, coverslips were soaked with an acetone solution of 0.5% 3-aminopropyltriethoxy-silane (Sigma), washed in acetone and air-dried. Following sample application, the coverslips were washed with 2 ml S-buffer, fixed in cold methanol for 10 min and stained with a polyclonal rabbit antibody raised against an N-terminal peptide of XSepA (M. Glotzer and T. Hyman, in preparation). Secondary antibodies were DTAF-coupled anti-rabbit (Dianova). Images were acquired using a Zeiss Axioplan II microscope and Adobe Photoshop software. Processing and analysis of immunofluorescence images was performed on a Macintosh computer using the public domain NIH Image program (developed at the U.S. National Institutes of Health and available at http://rsb.info.nih.gov/nih-image). Thresholded binary images were generated, and particle length was obtained by measuring the major axis of the best fitting ellipse. Particles with length <0.4 μm were not included in the analysis. Although filaments tended to be straight, this procedure results in underestimation of the length of curved filaments. For sedimentation assays, 20 μl polymerization reactions containing 1 mg/ml septin were pre-cleared in an ultracentrifuge at 279000×g for 15 min at 4° C. Precleared samples were incubated with nucleotide at room temperature for 30 min and spun through a 50% glycerol cushion at 279000×g for 15 min at 25° C.
Filament forming proteins like actin, tubulin and FtsZ polymerize in a nucleotide-dependent fashion. To test whether septin filament assembly is regulated by a similar mechanism, XSepA was incubated with GTP (or its slowly hydrolyzable analogue GTP-γ-S) for 30 minutes and spotted onto glass coverslips. After the coverslips were fixed and stained with anti-XSepA antibody, filamentous structures of up to 7 μm in length were observed. […] FIGS. 2A and 2B depict the GTP-dependent assembly of XSepA and Δcc-SepA filaments. Top panels: Immunostainings of septin preparations (1 mg/ml) incubated with 0.1 mM of the indicated nucleotide for 30 min and diluted in S-buffer prior to fixation. Filamentous structures are observed with both full-length (A) and Δcc-SepA (B) only in the presence of GTP or GTP-γ-S. Bottom panels: Identical reactions were centrifuged through a 50% glycerol cushion at 279000×g for 15 min. Supernatants (S) and pellets (P) were collected and resolved by gel electrophoresis.
To gain insight into the polymerization mechanism of XSepA, the kinetics of the filament formation reaction was followed using immunofluorescence microscopy. At different times after GTP addition, aliquots of septin protein were processed for immunofluorescence as already described. For each time point, individual septin filaments were counted and their lengths measured. The length of all the filaments present in a field was added, and the result (proportional to the polymer mass) was plotted against time. Immunofluorescence images were acquired as described and the length of the filaments was measured (see Methods section). The relative polymer mass was obtained by adding the length of all the filaments present in a field. Each point represents data from four random fields. Only filaments of ≧400 nm in length were considered in the analysis. (A) Time course of filament assembly. At different times following nucleotide addition to 0.1 mM (t=0 min) aliquots of a reaction containing 1 mg/ml XSepA were diluted 300-fold and spotted on coverslips for 1 min before washing and fixation. (B) Determination of the critical concentration for polymerization. […]

[3] = target: T1, XSepA; assay: Filament sedimentation assay through glycerol cushion; assay type: biochemical; conditions: 1 mg/ml septin, 0.1 mM nucleotide, 30 min, 279000×g
Protocol: as §1, with “Although filaments tended to be straight, this procedure results in underestimation of the length of curved filaments. For sedimentation assays, 20 μl polymerization reactions containing 1 mg/ml septin were pre-cleared in an ultracentrifuge at 279000×g for 15 min at 4° C. Precleared samples were incubated with nucleotide at room temperature for 30 min and spun through a 50% glycerol cushion at 279000×g for 15 min at 25° C.” left out

[4] = target: T2, XSepA filaments (Xenopus laevis, UniProt Q9DE33); assay: Dilution-induced filament depolymerization; assay type: biochemical; conditions: 20 min after 600-fold dilution into buffer
T2 construct: made in house; host or cells: E. coli BL21(DE3)
T2 sequence (Q9DE33 1-356): T1 sequence (Q9DE33 1-356)
Protocol: To gain insight into the polymerization mechanism of XSepA, the kinetics of the filament formation reaction was followed using immunofluorescence microscopy. At different times after GTP addition, aliquots of septin protein were processed for immunofluorescence as already described. For each time point, individual septin filaments were counted and their lengths measured. The length of all the filaments present in a field was added, and the result (proportional to the polymer mass) was plotted against time. Immunofluorescence images were acquired as described and the length of the filaments was measured (see Methods section). The relative polymer mass was obtained by adding the length of all the filaments present in a field. Each point represents data from four random fields. Only filaments of ≧400 nm in length were considered in the analysis. (A) Time course of filament assembly. […] Polymer content was determined after 30 min incubation. […] In (B) and (C) a curve was fitted to the data points where filaments were detected.
To address the role of GTP hydrolysis in septin filament formation, the polymerization kinetics of XSepA in the presence of a slowly hydrolysable GTP analogue, GTP-γ-S, was studied. […] To investigate directly whether nucleotide hydrolysis promotes disassembly, filaments assembled with GTP or GTP-γ-S were diluted 600-fold into buffer and depolymerization rates were determined. […]

[5] = literature values; tubulin: pure, in glycerol buffer; cited from earlier work

Compound	ability of cold nucleotide to compete with the radiolabeled guanine nucleotide [1]	filamentous structures observed [2]	sedimentable fraction of septin after incubation with nucleotide [3]	length of the lag phase of polymerization [2] [min]	critical concentration for XSepA polymerization [2] [mg/mL]	further results
Nc1nc2c(ncn2[C@@H]2O[C@H](COP(=O)(O)OP(=O)(O)O)[C@@H](O)[C@H]2O)c(=O)[nH]1 [GDP]	not	This was not the case	–	–	–	–
Nc1ncnc2c1ncn2[C@@H]1O[C@H](COP(=O)(O)OP(=O)(O)OP(=O)(O)O)[C@@H](O)[C@H]1O [ATP]	not	This was not the case	–	–	–	–
Nc1nc2c(ncn2[C@@H]2O[C@H](COP(=O)(O)OP(=O)(O)OP(O)(O)=S)[C@@H](O)[C@H]2O)c(=O)[nH]1 [GTP-γ-S]	–	–	increased significantly	3	0.2	filaments still present [4]: ca. 30 % of their initial level
Nc1nc2c(ncn2[C@@H]2O[C@H](COP(=O)(O)OP(=O)(O)OP(=O)(O)O)[C@@H](O)[C@H]2O)c(=O)[nH]1 [GTP, guanosine triphosphate]	able to compete	–	increased significantly	5	0.5	GTP binding plateau ([1]; filter binding, excess [3H]GTP): 0.4-0.5 moles GTP/moles of XSepA; time to essentially complete maximum of nucleotide binding ([1]; limiting concentration of nucleotide, not shown): ≤ 5 min; depolymerization after dilution [4]: essentially complete
actin	–	–	–	–	–	critical concentration for polymerization [5]: ~0.2 µM
